Reference: patent US10080366B2, “Agent for increasing sugar content in fruit” (RIKEN, priority 2012, dated 2018)
Where two headings read alike, the source gives them in different places.

Assays:
[1] = test system: harvested fruit of grape (variety: Barikan); conditions: for Sugar content (%) 8 days later, actually measured value / Mass (g) 6 days later (Jun. 8) / Mass (g) 8 days later (Jun. 10): 25° C.; for Mass (g) 6 days later (Jun. 8) / Mass (g) 8 days later (Jun. 10): mass 100 g on date of application; for Sugar content (%) 8 days later, calculated value: calculated from decrease in mass; for Sugar content (%) on date of application (Jun. 2): before application
Description: The fruit of grape was maintained in an air-conditioned greenhouse (temperature: 25° C.), and measured for the mass over time. The sugar content of the fruit was measured before the application and 8 days after the application with a sugar content meter. Next, on the assumption that the change in the mass of the fruit was entirely due to the change in water content, calculated values of the amount of decrease in mass and the sugar content on the date (June 2) of the application were determined […] by using the following calculation formula. (Calculated as follows: the sugar content (%) calculated value))=the sugar content (%) before application×the mass (g) on the date of application/the mass (g) on the date of measurement))

[2] = test system: fruit of grape (variety: Red Globe)
Description: An agent for increasing a sugar content in a fruit (containing Sorbon T-20 as a spreader/sticker at a final concentration of 200 μL/L) diluted with water to have a potassium hydrogen carbonate concentration of 10 g/L was prepared. The mass of fruit of grape (variety: Red Globe) purchased on the market was measured. Then, the prepared agent for increasing a sugar content in a fruit was applied by spraying to the fruit of grape. Then, the fruit of grape was allowed to stand in an air-conditioned greenhouse (temperature: 25° C.), and the mass was measured over time (date of application: Apr. 27, 2011; dates of test: May 2, 2011, May 6, 2011, May 9, 2011, May 11, 2011, May 13, 2011, and May 16, 2011). In addition, as a control, the mass of untreated grape was measured on each date of measurement in the same manner.
On the basis of the measured mass, the estimated amount (cumulative value) of transpiration and the estimated amount of transpiration per day were calculated. The results are shown in Tables 5 and 6 and FIGS. 10 and 11.
Note that the vertical axis in FIG. 10 represents the mass (g) of the fruit of grape on each of the dates of measurement per 100 g of the fruit of grape on the date of application, and the vertical axis in FIG. 11 represents the estimated amount (g) of transpiration on each of the dates of measurement per 100 g of the fruit of grape on the date of application. The estimated amount (g) of transpiration on each of the dates of measurement per 100 g of the fruit of grape on the date of application=(the mass (g) of the fruit of grape on the date of application−the mass (g) of the fruit of grape on the date of measurement)/the mass of the fruit of grape on the date of application×100

[3] = test system: fruit of grape (variety: Red Globe); conditions: for Sugar content (%) May 16: date of application; for mass of fruit as % of the mass on the date of application: 17 days later; for Sugar content (%) Jun. 2 Calculated value: calculated from decrease in mass
Description: The mass of fruit of grape (variety: Red Globe) purchased on the market was measured. Then, the prepared agents for increasing a sugar content in a fruit were applied by spraying to the fruit of grape, which was then allowed to stand in an air-conditioned greenhouse (temperature: 25° C.). With the mass of the grape on the date of application being 100 g, the mass of the grape after the application was measured over time (date of application: May 16, 2011; dates of test: May 19, May 23, May 27, May 30, and Jun. 2, 2011). Next, on the assumption that the change in mass of the fruit was entirely due to the change in water content, the calculated value of the sugar content was determined from the amount of decrease in mass and the sugar content on the date […] of the application (calculated as follows: “the sugar content (calculated value)=the sugar content (%) on the date of application×the mass (g) on the date of application/the mass (g) on the date of measurement”). In addition, as a control, the mass of untreated grape was measured in the same manner. The results are shown in Tables 7 and 8 and FIGS. 12 to 14.

[4] = test system: clusters of grape (variety: Crimson); assay: Estimated transpiration ratio of grape clusters (Example 9); format: in vivo; conditions: 10 g/L; 8 days after treatment
Tomato = conditions: 6 days after treatment
Mikan = conditions: 6 days after treatment
[5] = approximately 3 weeks later (19 days later)
[6] = 10 g/L, May 19, 100 g on May 16

O=C([O-])[O-].[K+].[K+] [Potassium carbonate, potassium carbonate]
decrease of mass of fruit in 8 days (June 2 to June 10) ([1]; 10 g/L): 25.56%
Sugar content (%) 8 days later, actually measured value ([1]; 10 g/L): 24.5%
Mass (g) 6 days later (Jun. 8) ([1]; 10 g/L): 80.7 g
Mass (g) 8 days later (Jun. 10) ([1]; 10 g/L): 74.5 g
action to increase the sugar content in the fruit (comparison) ([1]; 10 g/L, 8 days): the best
Sugar content (%) 8 days later, calculated value ([1]; 10 g/L): 24.2%
Sugar content (%) on date of application (Jun. 2) [1]: 18.0%
Sugar content (%) on date of application (Jun. 2) ([1]; listed as potassium carbonate): 18%
sugar concentration in the fruit (suggested) ([2]; 2 weeks later, assuming 20% on April 27, 20/41.4): exceeded 48%
Estimated amount (g) of transpiration per 100 g of fruit on date of application ([2]; 5 days later): 18.8 g
Mass (g) of fruit per 100 g of fruit on date of application ([2]; 5 days later (applied Apr. 27)): 81.2 g
Estimated amount (g) of transpiration per 100 g of fruit on date of application ([2]; 9 days later): 31.5 g
Mass (g) of fruit per 100 g of fruit on date of application ([2]; 9 days later): 68.5 g
Estimated amount (g) of transpiration per 100 g of fruit on date of application ([2]; 12 days later): 40 g
Mass (g) of fruit per 100 g of fruit on date of application ([2]; 12 days later): 60 g
Estimated amount (g) of transpiration per 100 g of fruit on date of application ([2]; 14 days later): 45.8 g
Mass (g) of fruit per 100 g of fruit on date of application ([2]; 14 days later): 54.2 g
Estimated amount (g) of transpiration per 100 g of fruit on date of application ([2]; 16 days later): 51.3 g
Mass (g) of fruit per 100 g of fruit on date of application ([2]; 16 days later): 48.7 g
Estimated amount (g) of transpiration per 100 g of fruit on date of application ([2]; 19 days later): 58.6 g
Mass (g) of fruit per 100 g of fruit on date of application ([2]; 19 days later): 41.4 g
mass as % of the mass on the date of application [2, 5]: 41.4%
ratio of transpiration of the fruit [2, 5]: 58.6%
mass relative to mass on the date of application ([2]; in 2 weeks): approximately ½
estimated amount of transpiration relative to untreated fruit ([2]; in vivo): two times or more of that of the untreated fruit
Sugar content (%) May 16 ([3]; 5 g/L group): 17.6%
mass of fruit as % of the mass on the date of application ([3]; 5 g/L): 66.6%
mass (g) of the fruit ([3]; 5 g/L, Jun. 2): 66.6 g
mass (g) of the fruit ([3]; 5 g/L, May 19, 100 g on May 16): 90.8 g
mass (g) of the fruit ([3]; 5 g/L, May 23): 84.5 g
mass (g) of the fruit ([3]; 5 g/L, May 27): 77 g
mass (g) of the fruit ([3]; 5 g/L, May 30): 72.1 g
Sugar content (%) Jun. 2 Calculated value ([3]; 5 g/L): 26.5%
Sugar content (%) May 16 ([3]; 10 g/L group): 18.2%
mass of fruit as % of the mass on the date of application ([3]; 10 g/L): 65%
mass (g) of the fruit ([3]; 10 g/L, Jun. 2): 65 g
mass (g) of the fruit [3, 6]: 90.6 g
mass (g) of the fruit ([3]; 10 g/L, May 23): 83.9 g
mass (g) of the fruit ([3]; 10 g/L, May 27): 75.9 g
mass (g) of the fruit ([3]; 10 g/L, May 30): 70.6 g
Sugar content (%) Jun. 2 Calculated value ([3]; 10 g/L): 28%
Estimated transpiration ratio (%) Average [4]: 33%
Estimated transpiration ratio (%) First [4]: 35%
Estimated transpiration ratio (%) Second [4]: 31%
Ratio (%) of decrease in body weight of fruit (Tomato; dilution ratio 50 (20 g/L)): 21.1%
Ratio (%) of decrease in body weight of fruit (Tomato; dilution ratio 100 (10 g/L)): 18.0%
Ratio (%) of decrease in body weight of fruit (Mikan; dilution ratio 50 (20 g/L)): 12.0%
Ratio (%) of decrease in body weight of fruit (Mikan; dilution ratio 100 (10 g/L)): 12.4%

O=P([O-])([O-])OP(=O)([O-])[O-].[K+].[K+].[K+].[K+] [Tetrapotassium pyrophosphate, tetrapotassium pyrophosphate]
decrease of mass of fruit in 8 days (June 2 to June 10) ([1]; 10 g/L): 19.1%
Sugar content (%) 8 days later, actually measured value ([1]; 10 g/L): 21.5%
Mass (g) 6 days later (Jun. 8) ([1]; 10 g/L): 85.7 g
Mass (g) 8 days later (Jun. 10) ([1]; 10 g/L): 80.9 g
Sugar content (%) 8 days later, calculated value ([1]; 10 g/L): 21.6%
Sugar content (%) on date of application (Jun. 2) [1]: 17.5%
ratio of decrease in mass per day (comparison) ([3]; 10 g/L): highest ratio of decrease in mass per day
Sugar content (%) May 16 ([3]; 10 g/L group): 16.6%
mass of fruit as % of the mass on the date of application ([3]; 10 g/L): 57.3%
mass (g) of the fruit ([3]; 10 g/L, Jun. 2): 57.3 g
mass (g) of the fruit [3, 6]: 86.7 g
mass (g) of the fruit ([3]; 10 g/L, May 23): 78.9 g
mass (g) of the fruit ([3]; 10 g/L, May 27): 69.8 g
mass (g) of the fruit ([3]; 10 g/L, May 30): 63.8 g
Sugar content (%) Jun. 2 Calculated value ([3]; 10 g/L): 29%
Estimated transpiration ratio (%) Average [4]: 32%
Estimated transpiration ratio (%) First [4]: 32%
Ratio (%) of decrease in body weight of fruit (Tomato; dilution ratio 100 (10 g/L)): 13.8%
Ratio (%) of decrease in body weight of fruit (Mikan; dilution ratio 100 (10 g/L)): 10.4%
